# Reference: patent US20090068746A1, “METHOD FOR MEASURING INTERACTION BETWEEN PHYSIOLOGICALLY ACTIVE SUBSTANCE AND TEST SUBSTANCE” (FUJIFILM Corporation, priority 2007, published 2009)
# Tested on: Carbonic Anhydrase (CA)
# Assay: Surface plasmon resonance binding of compound to biotinylated CA-immobilized substrate
# Conditions: for Binding signal (binding observed or not) / Amount of 100 nM Hydrochlorothiazide bound: 100 nM in 1×PBS (pH 7.4); for Binding signal (binding observed or not): all the substrates; for Binding activity / Mean binding activity: 100 nM; for Binding activity: one-to-one binding assumed, molecular weight conversion; for Mean binding activity: mean of the three substrates (7450, 3400, 1600 RV CA)
Binding signal (binding observed or not),"Amount of 100 nM Hydrochlorothiazide bound (amount of CA immobilized 1600 RV, Comparative example (without calibration))","Amount of 100 nM Hydrochlorothiazide bound (amount of CA immobilized 1600 RV, Example (with calibration of baseline, third curve approximation))","Amount of 100 nM Hydrochlorothiazide bound (amount of CA immobilized 3400 RV, Example (with calibration of baseline, third curve approximation))","Amount of 100 nM Hydrochlorothiazide bound (amount of CA immobilized 7450 RV, Comparative example (without calibration))","Amount of 100 nM Hydrochlorothiazide bound (amount of CA immobilized 7450 RV, Example (with calibration of baseline, third curve approximation))","Binding activity (CA immobilized 1600 RV, with calibration)","Binding activity (CA immobilized 1600 RV, without calibration)","Binding activity (CA immobilized 3400 RV, with calibration)","Binding activity (CA immobilized 3400 RV, without calibration)","Binding activity (CA immobilized 7450 RV, with calibration)","Binding activity (CA immobilized 7450 RV, without calibration)",Mean binding activity (with calibration),Mean binding activity (without calibration),Compound
binding signal was observed,7.1 RV,7.3 RV,16.3 RV,25.4 RV,31.7 RV,45.9%,44.7%,48.2%,40.6%,42.8%,34.4%,45.6%,39.9%,NS(=O)(=O)c1cc2c(cc1Cl)NCNS2(=O)=O [Hydrochlorothiazide]
no binding was observed,,,,,,,,,,,,,,O=C(O)c1cccnc1 [Nicotinic acid]
